# Results as given in PubChem BioAssay AID743464 (Broad Institute, 2014).
# Activity calls are given as the source filed them.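 Rule for the calls: active = fitted curve of COX8b expression increase reaching level 40 at or below the top valid tested dose; inconclusive = flat fit between 30 and 70, or poor fit; inactive = the rest.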
# How the values were obtained:
# [1] = system: C2C12 myotubes, COX8b mRNA qPCR (delta-delta-Ct); experiment: change in PGC-1a target gene COX8b expression, dose response, C2C12 myotubes, RT-qPCR, cherry-pick (AID 743464)
# [2] = as above; details: C2C12 myotubes, COX8b mRNA qPCR (delta-delta-Ct)
SMILES,AC40 [1],COX8b expression increase ([2]; at 19.5 µM (top of the series)),also measured
Cc1ccc(S(=O)(=O)N(C)C[C@H]2Oc3cc(C#Cc4ccncc4)ccc3S(=O)(=O)N([C@H](C)CO)C[C@H]2C)cc1,19.3 µM,,
Nc1ncnc(NCc2ccc(F)cc2)c1[N+](=O)[O-],,1.72 unspecified (inactive),
Cc1ccc(-c2nc(NC(=O)c3nn(C)cc3[N+](=O)[O-])sc2C)cc1,,8.83 unspecified (inactive),
Cn1nnnc1SCC(=O)NCc1cccc(C(=O)O)c1,,-7.14 unspecified (inactive),
Cc1nc(Nc2ccc(S(N)(=O)=O)cc2)sc1C(=O)Nc1ccccc1,,-1.19 unspecified (inactive),
N#Cc1cc(Oc2cccc3cccnc23)c(-n2nnc3ccccc32)cc1C#N,,,COX8b expression increase ([2]; at 6.8 µM (top of the series)): -21.9 unspecified (inactive)
CCn1nc(/C=C/c2ccccc2)nc2c(=O)n(C)c(=O)nc1-2,0.78 µM,,
C[C@H](CO)N1C[C@H](C)[C@@H](CN(C)C(=O)C2CCCCC2)Oc2cc(C#Cc3ccncc3)ccc2S1(=O)=O,,9.62 unspecified (inactive),
CCOC(=O)c1c2c(n(C)c1C)C(=O)C(=O)c1ccc(Br)cc1-2,16.8 µM,,
Cc1cc(C)cc(OC(=O)CS(=O)c2ccc(C(F)(F)F)cc2[N+](=O)[O-])c1 (centres undefined),,-6.23 unspecified (inactive),
CC1=C(Cl)C2=NS(=O)(=O)CCN2C=C1Cl,,6.22 unspecified (inactive),
N#Cc1ccc(-c2ccc(C3[C@@H]4CN(S(=O)(=O)c5ccc(F)cc5)C[C@H]3N4)cc2)cc1 (some centres undefined),> 19.5 µM (inactive),,
O=C(Nc1ccc(N2CCN(Cc3ccccc3F)CC2)cc1)c1ccc([N+](=O)[O-])o1,10.4 µM,,
O=c1cc(CSc2ccccn2)[nH]c(=O)[nH]1,,-6.81 unspecified (inactive),
COCCSc1ccccc1C(=O)Nc1cc(C)on1,,3.36 unspecified (inactive),
C=CS(=O)(=O)N(Cc1ccccc1Br)[C@H](CO)Cc1ccccc1,> 19.5 µM (inactive),,
Cc1ccccc1-n1nnnc1Sc1nnnn1-c1ccccc1,,9.68 unspecified (inactive),
C#CCN(C[C@@H]1[C@@H](OC(=O)NCCCCCC)[C@@H](OC(=O)NCCCCCC)Cn2c(=O)ccc(=O)n21)S(=O)(=O)c1ccc(C)cc1,,4.23 unspecified (inactive),
CCCN(CC)c1ncnc2[nH]ncc12,17.5 µM,,
O=C(Nc1cccc(F)c1)N1CC(=O)N2[C@@H](CO)[C@@H](c3ccc(C#Cc4cccnc4)cc3)[C@@H]2C1,> 19.5 µM (inactive),,
COC(=O)c1nn(-c2ccccc2)ccc1=O,,3.82 unspecified (inactive),
COc1ccccc1-c1ccc([C@@H]2[C@@H]3CN(S(=O)(=O)c4ccc(-c5ccccc5)cc4)C[C@H]2N3)cc1,> 19.5 µM (inactive),,

SMILES,AC40 [1],COX8b expression increase ([2]; at 19.5 µM (top of the series)),also measured
Cc1ccc(Cn2ncc(Cl)c(Cl)c2=O)cc1,> 19.5 µM (inactive),,
COc1ccccc1C#Cc1ccc2c(c1)O[C@@H](CN(C)Cc1cccnc1)[C@H](C)CN([C@H](C)CO)S2(=O)=O,> 19.5 µM (inactive),,
Cc1cccc(NC(=O)CNC(=O)Cn2ncc(Cl)c(Cl)c2=O)c1C,> 19.5 µM (inactive),,
C[C@H](CO)N1C[C@H](C)[C@@H](CN(C)Cc2cccnc2)Oc2cc(C#CC3CCCCC3)ccc2S1(=O)=O,,0.89 unspecified (inactive),
CCN1CCN(Cc2ccc(NC(=O)c3cc(NC(=O)c4cncc(-c5ccc(C#N)cc5)c4)cc(OC)c3)cc2C(F)(F)F)CC1,,-3 unspecified (inactive),
C[C@H]1CN([C@@H](C)CO)S(=O)(=O)c2ccc(-c3ccccc3)cc2O[C@@H]1CN(C)Cc1cccc(F)c1,,-3.3 unspecified (inactive),
CS(=O)c1nc(-c2ccc(Br)cc2)cc(-c2ccccc2)c1C#N (centres undefined),,6.29 unspecified (inactive),
OC(c1cc(C(F)(F)F)nc2c(C(F)(F)F)cccc12)C1CCCCN1 (centres undefined),,1.68 unspecified (inactive),
CCN(CC(=O)NCc1ccc(Cl)cc1)C(=O)CSCC(=O)Nc1ccc(C)cc1,,0.86 unspecified (inactive),
Cc1ccc(S(=O)(=O)N(C)C[C@@H]2Oc3cc(C#Cc4ccncc4)ccc3S(=O)(=O)N([C@H](C)CO)C[C@H]2C)cc1,> 19.5 µM (inactive),,
Cc1ccc(-c2ccc(C3[C@@H]4CN(C(=O)Nc5ccc(C(F)(F)F)cc5)C[C@H]3N4)cc2)cc1 (some centres undefined),> 19.5 µM (inactive),,
CCOc1cc(CNC2CCCC2)cc(Cl)c1OCc1ccc(F)cc1,,0.737 unspecified (inactive),
O=C(Nc1ccc(C(F)(F)F)cc1)N1C[C@@H]2N[C@H](C1)C2c1ccc(-c2ccccc2)cc1 (some centres undefined),> 19.5 µM (inactive),,
CCN1CCN(Cc2ccc(NC(=O)c3ccc(C)c(NC(=O)c4c[nH]c5cc(C(F)(F)F)ccc5c4=O)c3)cc2C(F)(F)F)CC1,,15.7 unspecified (inactive),
COc1ccc(C(=O)Nc2cccc(NC(=O)c3ccc(OC)c(OC)c3)n2)cc1OC,,7.85 unspecified (inactive),
O=C(C[C@H]1CC[C@@H](NC(=O)c2ccccc2)[C@H](CO)O1)Nc1ccc(-c2ccccc2)cc1,,-12.4 unspecified (inactive),
Cc1cc2c(c(/C=C/C(=O)c3ccccc3)c1)OC1(C=C2)Oc2ccccc2C(=O)N1C (centres undefined),,21.7 unspecified (inactive),
Cc1nc2ccccn2c1C(=O)/C=C/c1ccc(F)cc1,,-3.59 unspecified (inactive),
CC[C@H](C)[C@H](NC(=O)c1ccc(Cl)cc1)C(=O)OCC(=O)c1ccc2c(c1)NC(=O)CO2,,-1.89 unspecified (inactive),
Cc1ccc(S(=O)(=O)N(C)C[C@@H]2Oc3cc(C#Cc4ccncc4)ccc3S(=O)(=O)N([C@@H](C)CO)C[C@H]2C)cc1,> 19.5 µM (inactive),,
COc1ccccc1C#Cc1ccc([C@H]2[C@H](C#N)N(C(=O)C3CCCC3)[C@H]2CO)cc1,,21.2 unspecified (inactive),
O=c1[nH]c2ccccc2n1C1CCN(C(c2cc3ccccc3o2)c2nnnn2Cc2ccccc2)CC1 (centres undefined),,12.6 unspecified (inactive),
